Activity calls are given as the source filed them.
Experiments:
HeLa = test: Cytotoxicity against human HeLa cells by MTT assay; format: functional, cell-based
[1] = target: T1, DNA topoisomerase (Bos taurus) (UniProt A0JN73); test: Inhibition of calf thymus Topoisomerase 1 relaxation activity by plasmid relaxation assay
T1 sequence (whole entry): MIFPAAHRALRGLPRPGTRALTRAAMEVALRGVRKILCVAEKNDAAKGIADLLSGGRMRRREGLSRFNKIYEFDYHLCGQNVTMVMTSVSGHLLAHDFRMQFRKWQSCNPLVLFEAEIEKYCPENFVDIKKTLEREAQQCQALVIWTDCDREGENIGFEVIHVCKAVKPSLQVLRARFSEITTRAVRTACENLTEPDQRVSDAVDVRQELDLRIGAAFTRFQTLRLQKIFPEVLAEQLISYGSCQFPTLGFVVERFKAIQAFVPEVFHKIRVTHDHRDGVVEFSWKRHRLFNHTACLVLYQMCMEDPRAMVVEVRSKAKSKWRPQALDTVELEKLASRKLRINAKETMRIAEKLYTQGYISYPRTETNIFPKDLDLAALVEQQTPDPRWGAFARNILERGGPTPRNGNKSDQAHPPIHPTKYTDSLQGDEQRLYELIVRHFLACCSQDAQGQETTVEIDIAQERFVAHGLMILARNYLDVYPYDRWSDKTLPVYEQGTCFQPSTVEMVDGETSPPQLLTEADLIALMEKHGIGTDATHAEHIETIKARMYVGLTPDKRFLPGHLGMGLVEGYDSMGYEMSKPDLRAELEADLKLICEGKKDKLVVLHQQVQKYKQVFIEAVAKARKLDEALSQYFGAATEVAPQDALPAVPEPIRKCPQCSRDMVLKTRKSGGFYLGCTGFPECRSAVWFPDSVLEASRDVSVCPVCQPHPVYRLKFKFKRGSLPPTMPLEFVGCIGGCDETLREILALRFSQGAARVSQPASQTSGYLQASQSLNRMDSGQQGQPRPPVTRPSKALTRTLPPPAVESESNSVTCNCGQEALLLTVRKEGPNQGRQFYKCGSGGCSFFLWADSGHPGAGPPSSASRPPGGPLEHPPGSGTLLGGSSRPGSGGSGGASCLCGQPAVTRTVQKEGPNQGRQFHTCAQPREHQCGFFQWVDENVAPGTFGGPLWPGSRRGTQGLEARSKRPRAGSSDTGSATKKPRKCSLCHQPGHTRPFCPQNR

A549 = test: Cytotoxicity against human A549 cells by MTT assay; format: functional, cell-based
Staphylococcus = test: Antibacterial activity against Staphylococcus albus assessed as absence of growth after 18 hrs by conventional broth dilution assay; format: functional, organism-based
Pseudomonas putida = test: Antibacterial activity against Pseudomonas putida assessed as absence of growth after 18 hrs by conventional broth dilution assay; format: functional, organism-based
HL-60 = test: Cytotoxicity against human HL60 cells by MTT assay; format: functional, cell-based
Bacillus subtilis = test: Antibacterial activity against Bacillus subtilis assessed as absence of growth after 18 hrs by conventional broth dilution assay; format: functional, organism-based
Vibrio parahaemolyticus = test: Antibacterial activity against Vibrio parahaemolyticus assessed as absence of growth after 18 hrs by conventional broth dilution assay; format: functional, organism-based
K562 = test: Cytotoxicity against human K562 cells by MTT assay; format: functional, cell-based
[2] = system: Tetragenococcus halophilus; test: Antibacterial activity against Tetragenococcus halophilus assessed as absence of growth after 18 hrs by conventional broth dilution assay; format: functional
[3] = target: Acetylcholinesterase (Electrophorus electricus) (UniProt O42275); test: Inhibition of electric eel AChE using acetylthiocholine iodide as substrate by Ellman's method
Acetylcholinesterase (Electrophorus electricus), sequence (O42275 24-633 limits assumed): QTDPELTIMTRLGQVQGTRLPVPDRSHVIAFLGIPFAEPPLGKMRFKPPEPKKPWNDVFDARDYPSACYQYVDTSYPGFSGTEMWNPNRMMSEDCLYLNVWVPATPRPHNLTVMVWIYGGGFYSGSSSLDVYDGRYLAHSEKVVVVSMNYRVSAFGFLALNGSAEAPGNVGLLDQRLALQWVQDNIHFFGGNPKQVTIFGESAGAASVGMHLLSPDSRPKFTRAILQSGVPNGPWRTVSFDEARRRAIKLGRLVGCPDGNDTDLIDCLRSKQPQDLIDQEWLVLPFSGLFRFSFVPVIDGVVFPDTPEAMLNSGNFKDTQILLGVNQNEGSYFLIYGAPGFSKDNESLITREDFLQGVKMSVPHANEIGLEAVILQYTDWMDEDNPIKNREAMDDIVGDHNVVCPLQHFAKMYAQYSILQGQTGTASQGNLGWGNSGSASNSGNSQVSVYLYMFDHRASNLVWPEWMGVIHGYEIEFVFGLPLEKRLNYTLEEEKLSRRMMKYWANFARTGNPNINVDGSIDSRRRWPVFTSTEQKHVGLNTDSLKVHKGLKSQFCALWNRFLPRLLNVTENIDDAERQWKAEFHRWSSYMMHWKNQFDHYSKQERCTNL

Amphibalanus amphitrite = test: Antifouling activity against Balanus amphitrite Darwin; format: functional, organism-based
Staphylococcus aureus = test: Antibacterial activity against Staphylococcus aureus assessed as absence of growth after 18 hrs by conventional broth dilution assay; format: functional, organism-based
Bacillus cereus = test: Antibacterial activity against Bacillus cereus assessed as absence of growth after 18 hrs by conventional broth dilution assay; format: functional, organism-based

Measured: inhibition

C[C@H](O)C[C@@H]1CC(=O)c2c(CC(=O)O)cc(O)cc2O1
inactive: all assays above

CC(C)COC(=O)Cc1cc(O)cc2c1C(=O)C[C@@H](C[C@H](C)O)O2
inactive: all assays above

CC(=O)C[C@H]1CC(=O)c2c(CC(=O)O)cc(O)cc2O1
inactive: all assays above

Cc1cc(=O)c2c(CC(=O)OCC(C)C)cc(O)cc2o1
inactive: all assays above

CCOC(=O)Cc1cc(O)cc2c1C(=O)C[C@H](C[C@H](C)O)O2
inactive: all assays above

COc1c(O)cc(CC(=O)O)c2c1O[C@H](C[C@H](C)O)CC2=O
inactive: all assays above

CCOC(=O)Cc1cc(O)cc2oc(C)cc(=O)c12
inactive: all assays above

C[C@H](O)C[C@H]1CC(=O)c2c(CC(=O)O)cc(O)cc2O1
inactive: all assays above

CC(C)COC(=O)Cc1cc(O)cc2c1C(=O)C[C@H](C[C@H](C)O)O2
inactive: all assays above

CCOC(=O)Cc1cc(O)cc2oc(/C=C/C[C@H](C)O)cc(=O)c12
inactive: all assays above

COc1c(O)cc(CC(=O)O)c2c1O[C@@H](C[C@H](C)O)CC2=O
inactive: all assays above

CCOC(=O)Cc1cc(O)cc2c1C(=O)C[C@@H](C[C@H](C)O)O2
inactive: all assays above
